This passage reports IC50, Ratio IC50 and ΔTm results from ChEMBL document CHEMBL5154816, “Structure-Based Discovery and Optimization of Furo[3,2-c]pyridin-4(5H)-one Derivatives as Potent and Second Bromodomain (BD2)-Selective Bromo and Extra Terminal Domain (BET) Inhibitors” (J Med Chem, 2022).

The target of data set [1] is T1, Bromodomain-containing protein 4 (Homo sapiens, UniProt O60885). The data set can be described thus: Inhibition of C-terminal His6-tagged BRD4 BD2 (unknown origin) using H-YSGRGK(Ac)GGK(Ac)GLGK(Ac)-GGAK(Ac)RHRK-Biotin-OH as substrate incubated for 1 hrs by HTRF assay.
Data set [2] concerns the target T1, Bromodomain-containing protein 4. The data set can be described thus: Inhibition of C-terminal His6-tagged BRD4 BD1 (unknown origin) using H-YSGRGK(Ac)GGK(Ac)GLGK(Ac)-GGAK(Ac)RHRK-Biotin-OH as substrate incubated for 1 hrs by HTRF assay. (Time-resolved FRET reads energy transfer from a long-lived donor to a nearby acceptor.)
The species entered for data set [3] is Homo sapiens. The data set can be described thus: Selectivity index, ratio of IC50 for BRD4 BD1 (unknown origin) to IC50 of BRD4 BD2 (unknown origin).
A short description of data set [4]: Cytotoxicity against human HFL1 cells assessed as cell growth inhibition incubated for 72 hrs by Cell titre Glo-luminiscence cell viability assay. Type of data set: toxicity, cell-based.
The target of data set [5] is PH-interacting protein (Homo sapiens) (UniProt Q8WWQ0). The data set can be described thus: Binding affinity to PHIP-2 (unknown origin) assessed as change in melting temperature at 100 uM incubated for 30 mins by thermal shift assay.
The target of data set [6] is SWI/SNF-related matrix-associated actin-dependent regulator of chromatin subfamily A member 2 (Homo sapiens) (UniProt P51531). Put plainly: Binding affinity to SMARCA2B (unknown origin) assessed as change in melting temperature at 100 uM incubated for 30 mins by thermal shift assay.
Chain of SWI/SNF-related matrix-associated actin-dependent regulator of chromatin subfamily A member 2 (Homo sapiens) (P51531 whole entry): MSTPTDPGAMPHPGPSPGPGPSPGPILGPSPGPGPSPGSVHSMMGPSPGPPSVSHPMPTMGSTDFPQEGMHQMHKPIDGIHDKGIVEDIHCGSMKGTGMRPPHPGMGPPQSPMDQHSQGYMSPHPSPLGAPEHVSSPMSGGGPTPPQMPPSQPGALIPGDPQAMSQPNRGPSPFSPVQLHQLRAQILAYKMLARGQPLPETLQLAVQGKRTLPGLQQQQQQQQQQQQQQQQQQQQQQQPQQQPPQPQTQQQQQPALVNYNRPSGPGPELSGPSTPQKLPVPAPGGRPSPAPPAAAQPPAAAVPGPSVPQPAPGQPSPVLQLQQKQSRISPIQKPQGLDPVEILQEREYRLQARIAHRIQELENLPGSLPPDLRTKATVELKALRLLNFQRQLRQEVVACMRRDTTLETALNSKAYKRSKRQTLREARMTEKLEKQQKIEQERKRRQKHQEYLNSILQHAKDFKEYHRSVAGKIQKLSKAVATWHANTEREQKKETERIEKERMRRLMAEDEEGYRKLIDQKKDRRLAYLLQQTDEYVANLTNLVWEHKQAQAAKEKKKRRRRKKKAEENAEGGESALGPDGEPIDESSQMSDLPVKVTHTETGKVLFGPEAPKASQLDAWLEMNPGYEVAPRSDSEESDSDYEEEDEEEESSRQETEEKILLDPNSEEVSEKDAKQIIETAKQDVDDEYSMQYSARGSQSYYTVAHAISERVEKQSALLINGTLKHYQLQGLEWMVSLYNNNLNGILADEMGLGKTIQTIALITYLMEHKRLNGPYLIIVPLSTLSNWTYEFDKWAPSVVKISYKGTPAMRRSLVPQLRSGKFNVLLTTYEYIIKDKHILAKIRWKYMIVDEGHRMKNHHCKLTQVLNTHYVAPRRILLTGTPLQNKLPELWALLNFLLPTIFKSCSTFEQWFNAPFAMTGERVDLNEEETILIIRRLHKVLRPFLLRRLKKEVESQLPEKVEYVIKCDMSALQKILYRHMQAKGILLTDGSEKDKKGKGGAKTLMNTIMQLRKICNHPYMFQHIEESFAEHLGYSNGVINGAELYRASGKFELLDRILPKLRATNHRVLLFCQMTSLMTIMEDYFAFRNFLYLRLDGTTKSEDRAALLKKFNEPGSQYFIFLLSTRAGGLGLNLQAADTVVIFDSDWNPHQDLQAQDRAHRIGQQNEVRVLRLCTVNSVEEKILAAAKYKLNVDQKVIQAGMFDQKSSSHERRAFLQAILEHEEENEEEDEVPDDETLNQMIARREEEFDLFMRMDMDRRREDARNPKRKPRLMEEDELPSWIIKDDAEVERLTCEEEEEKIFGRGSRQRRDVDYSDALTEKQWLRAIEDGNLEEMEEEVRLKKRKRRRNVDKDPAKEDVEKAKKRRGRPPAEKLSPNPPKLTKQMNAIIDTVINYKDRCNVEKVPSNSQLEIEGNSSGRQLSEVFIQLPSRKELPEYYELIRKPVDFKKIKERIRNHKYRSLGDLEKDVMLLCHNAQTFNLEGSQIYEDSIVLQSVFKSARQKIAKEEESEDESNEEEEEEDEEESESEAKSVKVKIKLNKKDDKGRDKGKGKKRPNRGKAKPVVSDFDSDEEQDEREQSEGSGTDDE
The target is the same in data set [7]. Put plainly: Binding affinity to SMARCA2A (unknown origin) assessed as change in melting temperature at 100 uM incubated for 30 mins by thermal shift assay.

Bounds are passed on as bounds.

For `CCS(=O)(=O)Nc1ccc(Oc2ccc(F)cc2F)c(-c2cn(C)c(=O)c3cc(-c4ccc(OCCO)cc4)oc23)c1`, the IC50 (in general, the concentration at which inhibition is half-maximal) was found to be 0.62 nM in data set [1] and 0.56 nM in data set [2]. Besides, the Ratio IC50 in data set [3] is 0.9.
Take `CCS(=O)(=O)Nc1ccc(Oc2ccc(F)cc2F)c(-c2cn(C)c(=O)c3cc(-c4cc(C)c(OCCO)c(C)c4)oc23)c1`: the IC50 in data set [1] was 0.6 nM; in data set [2], 0.56 nM. Besides, the Ratio IC50 in data set [3] turned out to be 0.93. The IC50 at 72 h in data set [4] was < 10 nM.
For the compound `CCS(=O)(=O)Nc1ccc(Oc2ccc(F)cc2F)c(-c2cn(C)c(=O)c3cc(-c4cnc[nH]4)oc23)c1`, the IC50 in data set [1] amounted to 0.51 nM; in data set [2] it was 1.2 nM. The Ratio IC50 in data set [3] was 2.35.
The matching figures for `Cc1cc(-c2cc3c(=O)n(C)cc(-c4cc(NS(C)(=O)=O)ccc4Oc4ccc(F)cc4F)c3o2)cc(C)c1OCCO`: 0.76 nM, 0.39 nM and 0.51.
As for `CC(=O)Nc1ccc(Oc2ccc(F)cc2F)c(-c2cn(C)c(=O)c3cc(-c4cc(C)c(OCCO)c(C)c4)oc23)c1`, the IC50 came to 0.83 nM in data set [1] and 0.52 nM in data set [2]. Further, the Ratio IC50 in data set [3] came out at 0.63.
With `CCS(=O)(=O)Cc1ccc(Oc2ccc(F)cc2F)c(-c2cn(C)c(=O)c3cc(-c4cc(C)c(OCCO)c(C)c4)oc23)c1`, the IC50 in data set [1] was 0.55 nM; in data set [2], 0.33 nM. Besides, the Ratio IC50 in data set [3] came out at 0.6.
The matching figures for `CCS(=O)(=O)Nc1ccc(Oc2ccc(F)cc2F)c(-c2cn(C)c(=O)c3cc(-c4cnc(C5CCC5)[nH]4)oc23)c1`: 0.94 nM, 2 nM and 2.13.
Take `Cc1cc(-c2cc3c(=O)n(C)cc(-c4cc(CS(=O)(=O)C(C)(C)C)ccc4Oc4ccc(F)cc4F)c3o2)cc(C)c1OCCO`: the IC50 in data set [1] worked out at 1.4 nM; in data set [2], 3.3 nM. Also, the Ratio IC50 in data set [3] turned out to be 2.36.
In the same order, the values of `CCC(=O)Nc1ccc(Oc2ccc(F)cc2F)c(-c2cn(C)c(=O)c3cc(-c4cc(C)c(OCCO)c(C)c4)oc23)c1` are 0.72 nM, 2.3 nM and 3.19.
With `CCS(=O)(=O)Nc1ccc(Oc2ccc(F)cc2F)c(-c2cn(C)c(=O)c3cc(-c4ccc(CCCO)cc4)oc23)c1`, the figures for the IC50 in data set [1] and in data set [2] were 0.41 nM and 0.75 nM, respectively. In addition, the Ratio IC50 in data set [3] turned out to be 1.83.
Turning to `CCS(=O)(=O)Nc1ccc(Oc2ccc(F)cc2F)c(-c2cn(C)c(=O)c3cc(-c4cnc(C5CCCC5)[nH]4)oc23)c1`, the IC50 stood at 0.91 nM in data set [1] and 4.1 nM in data set [2]. The Ratio IC50 in data set [3] was 4.52.
The matching figures for `CCS(=O)(=O)Nc1ccc(Oc2ccc(F)cc2F)c(-c2cn(C)c(=O)c3cc(-c4ccccc4)oc23)c1`: 1.5 nM, 2.4 nM and 1.6.
Consider `CCc1cccc(CC)c1Oc1ccc(NS(=O)(=O)CC)cc1-c1cn(C)c(=O)c2cc(-c3cc(C)c(OCCO)c(C)c3)oc12`, for which the IC50 in data set [1] was determined as 9.7 nM; in data set [2], 61 nM. Further, in data set [3], the Ratio IC50 amounted to 6.29.
As for `Cc1cc(-c2cc3c(=O)n(C)cc(-c4cc(NC(=O)C5CC5)ccc4Oc4ccc(F)cc4F)c3o2)cc(C)c1OCCO`, the IC50 in data set [1] stood at 3.2 nM; in data set [2], 6.8 nM. In addition, in data set [3], the Ratio IC50 worked out at 2.12.
In the same order, the values of `CCS(=O)(=O)Nc1ccc(Oc2c(C)cc(F)cc2C)c(-c2cn(C)c(=O)c3cc(-c4cc(C)c(OCCO)c(C)c4)oc23)c1` are 0.8 nM, 6.5 nM and 8.12.
Take `CCS(=O)(=O)Nc1ccc(Oc2c(OC)cccc2OC)c(-c2cn(C)c(=O)c3cc(-c4cc(C)c(OCCO)c(C)c4)oc23)c1`: the IC50 in data set [1] came out at 2 nM; in data set [2], 9.8 nM. The Ratio IC50 in data set [3] was 4.9.
The matching figures for `CCCS(=O)(=O)Nc1ccc(Oc2ccc(F)cc2F)c(-c2cn(C)c(=O)c3cc(-c4cc(C)c(OCCO)c(C)c4)oc23)c1`: 0.65 nM, 0.94 nM and 1.54.
Turning to `Cc1cc(F)cc(C)c1Oc1ccc(C(C)(C)O)cc1-c1cn(C)c(=O)c2cc(-c3cnc(C(C)C)[nH]3)oc12`, the IC50 in data set [1] came out at 0.68 nM; in data set [2] it was 192 nM. Also, the Ratio IC50 in data set [3] was found to be 282.
In the same order, the values of `Cc1cc(F)cc(C)c1Oc1ccc(C(C)(C)O)cc1-c1cn(C)c(=O)c2cc(-c3cnc(C4CCOC4)[nH]3)oc12` (stereo unspecified) are 0.6 nM, 78 nM and 130.
As for `CCc1cccc(C)c1Oc1ccc(NS(=O)(=O)CC)cc1-c1cn(C)c(=O)c2cc(-c3cc(C)c(OCCO)c(C)c3)oc12`, the IC50 was determined as 1.4 nM in data set [1] and 10 nM in data set [2]. Besides, the Ratio IC50 in data set [3] is 7.14.
Regarding `Cc1cc(-c2cc3c(=O)n(C)cc(-c4cc(C(C)(C)O)ccc4Oc4ccc(F)cc4F)c3o2)cc(C)c1OCCO`, the IC50 in data set [1] is 0.45 nM; in data set [2], 1.57 nM. In data set [3], the Ratio IC50 was 3.5.
In the same order, the values of `Cc1cc(-c2cc3c(=O)n(C)cc(-c4cc(CS(=O)(=O)C(C)C)ccc4Oc4ccc(F)cc4F)c3o2)cc(C)c1OCCO` are 0.62 nM, 0.57 nM and 0.92.
Consider `Cc1cc(-c2cc3c(=O)n(C)cc(-c4cc(NS(=O)(=O)C(C)C)ccc4Oc4ccc(F)cc4F)c3o2)cc(C)c1OCCO`, for which the IC50 in data set [1] was determined as 0.94 nM; in data set [2], 1.4 nM. In data set [3], the Ratio IC50 amounted to 1.49.
In the same order, the values of `CCc1ncc(-c2cc3c(=O)n(C)cc(-c4cc(C(C)(C)O)ccc4Oc4c(C)cc(F)cc4C)c3o2)[nH]1` are 0.6 nM, 121 nM and 202.
`Cc1cc(-c2cc3c(=O)n(C)cc(-c4cc(NS(=O)(=O)C5CC5)ccc4Oc4ccc(F)cc4F)c3o2)cc(C)c1OCCO`: the IC50 in data set [1] and in data set [2] was 1 nM in each case. Besides, the Ratio IC50 in data set [3] amounted to 1.
Turning to `Cc1cc(-c2cc3c(=O)n(C)cc(-c4cc(NC(=O)C(C)C)ccc4Oc4ccc(F)cc4F)c3o2)cc(C)c1OCCO`, the IC50 in data set [1] is 1.9 nM; in data set [2], 7.8 nM. For the same compound, the Ratio IC50 in data set [3] was determined as 4.11.
Take `Cc1cc(-c2cc3c(=O)n(C)cc(-c4cc(CO)ccc4Oc4ccc(F)cc4F)c3o2)cc(C)c1OCCO`: the IC50 came to 0.98 nM in data set [1] and 4.1 nM in data set [2]. Moreover, in data set [3], the Ratio IC50 worked out at 4.18.
The matching figures for `Cc1cc(-c2cc3c(=O)n(C)cc(-c4cc(C(C)(C)O)ccc4Oc4c(C)cc(F)cc4C)c3o2)cc(C)c1OCCCO`: 1.4 nM, 63 nM and 45.
`CCS(=O)(=O)Nc1ccc(Oc2ccc(F)cc2F)c(-c2cn(C)c(=O)cc2OCc2ccccc2)c1` displayed an IC50 in data set [1] of 0.92 nM.
Regarding `CCS(=O)(=O)Nc1ccc(Oc2c(F)cc(F)cc2F)c(-c2cn(C)c(=O)c3cc(-c4cc(C)c(OCCO)c(C)c4)oc23)c1`, the IC50 in data set [1] was found to be 0.49 nM; in data set [2], 0.43 nM. In addition, in data set [3], the Ratio IC50 was found to be 0.88.
Take `CCS(=O)(=O)Nc1ccc(Oc2ccc(F)cc2F)c(-c2cn(C)c(=O)c3cc(-c4cc(C)c(CCCO)c(C)c4)oc23)c1`: the figures for the IC50 in data set [1] and in data set [2] were 0.49 nM and 0.72 nM, respectively. In addition, the Ratio IC50 in data set [3] was 1.47.
In the same order, the values of `Cc1cc(F)cc(C)c1Oc1ccc(C(C)(C)O)cc1-c1cn(C)c(=O)c2cc(-c3cnc(C4CCOCC4)[nH]3)oc12` are 0.46 nM, 60 nM and 130.
Turning to `CCS(=O)(=O)Nc1ccc(Oc2ccc(F)cc2F)c(-c2cn(C)c(=O)c3cc(-c4cnc(C(C)C)[nH]4)oc23)c1`, the IC50 in data set [1] stood at 0.54 nM; in data set [2] it was 0.95 nM. Also, the Ratio IC50 in data set [3] came to 1.76.
For `CCc1ncc(-c2cc3c(=O)n(C)cc(-c4cc(NS(=O)(=O)CC)ccc4Oc4ccc(F)cc4F)c3o2)[nH]1`, the values for the half-maximal inhibitory concentration (IC50) in data set [1] and in data set [2] were 0.5 nM and 1.2 nM, respectively. Further, the Ratio IC50 in data set [3] came to 2.4.
In the same order, the values of `CCS(=O)(=O)Nc1ccc(Oc2c(C)cccc2C)c(-c2cn(C)c(=O)c3cc(-c4cc(C)c(OCCO)c(C)c4)oc23)c1` are 1.3 nM, 6 nM and 4.62.
Regarding `CCS(=O)(=O)Nc1ccc(Oc2ccc(F)cc2F)c(-c2cn(C)c(=O)c3cc(-c4cnc(C5CC5)[nH]4)oc23)c1`, the results for the IC50 in data set [1] and in data set [2] were 0.34 nM and 0.7 nM, respectively. Further, the Ratio IC50 in data set [3] worked out at 2.06.
Consider `Cc1sc2c(c1C)C(c1ccc(Cl)cc1)=N[C@@H](CC(=O)OC(C)(C)C)c1nnc(C)n1-2`, for which the ΔTm (usually the shift of the melting midpoint relative to a reference) is -1 °C in data set [5], 0.25 °C in data set [6] and -0.25 °C in data set [7].
As to `CCS(=O)(=O)Nc1ccc(Oc2ccc(F)cc2F)c(-c2cn(C)c(=O)c3cc(-c4cc(C)cc(C)c4)oc23)c1`, the IC50 in data set [1] worked out at 3.7 nM; in data set [2], 6.1 nM. Besides, the Ratio IC50 in data set [3] came out at 1.65.
As for `CCS(=O)(=O)Nc1ccc(Oc2ccc(F)cc2F)c(-c2cn(C)c(=O)c3cc(-c4cnc(C)[nH]4)oc23)c1`, the IC50 in data set [1] was found to be 0.76 nM; in data set [2] it was 0.53 nM. Besides, in data set [3], the Ratio IC50 worked out at 0.7.
